Test systems include PC-3 prostate; BT-549 breast; MDA-MB-231 breast; MDA-N; KM20L2 colon; M19-MEL melanoma; LXFL 529 NSCLC; DMS 273 small cell lung.
Common to all, as to test: growth of human tumour cells (NCI), 48 h

“And” between values parts separate entries of the source, which are not always exact repeats. Identical values can stand only once.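 Test compounds were applied to cells in 96-well plates for 48 hours at 5 doses. At the GI50, growth is halved. The concentration for full growth arrest is given as TGI.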

With `Cc1ccc(-n2nc(C(C)(C)C)cc2NC(=O)NCc2cc(F)ccc2Oc2ccc3c(cnn3CCO)c2)cc1`, the GI50 with PC-3 prostate was > 10 µM and 5.28 µM; in the assay on BT-549 breast, > 10 µM and 4.68 µM; in the assay on MDA-MB-231 breast, 2.6 µM and 2.57 µM. Besides, the values for the TGI with PC-3 prostate, in the assay on BT-549 breast and with MDA-MB-231 breast were > 100 µM, > 96.1 µM and > 58.9 µM, respectively.
In the case of `COc1c(O)c(OC)c2oc(-c3ccc(O)cc3)c(OC)c(=O)c2c1O`, the TGI with MDA-N, in the assay on PC-3 prostate, with BT-549 breast and in the assay with MDA-MB-231 breast was > 100 µM throughout.
In the case of `C=CC1=C(C)C2=NC1=CC1=NC(=CC3=C(C)C4=C(O)[C@H](C(=O)OC)C(=C5NC(=C2)[C@@H](C)[C@@H]5CCC(=O)O)C4=N3)C(CC)=C1C`, the TGI in the assay with MDA-N was > 100 µM; with PC-3 prostate, > 41.1 µM; with BT-549 breast, > 20.2 µM; in the assay on MDA-MB-231 breast, > 60.5 µM.
Turning to `COc1ccc(Nc2nccc(N3CCN(c4c5ccc(Cl)cc5nc5ccc(OC)cc45)CC3)n2)cc1`, in the assay with BT-549 breast, the GI50 was 14.4 µM and the TGI was > 100 µM. In the assay with MDA-MB-231 breast, the GI50 was 4.63 µM and the TGI is > 100 µM.
Consider `COc1ccc(C(=O)c2nc3ccccc3n2CC(=O)c2ccc(Cl)cc2)cc1`, for which the GI50 in the assay on PC-3 prostate is 3.09 µM; with BT-549 breast, 4.11 µM; in the assay on MDA-MB-231 breast, 15.6 µM. Further, the TGI in the assay with PC-3 prostate, in the assay with BT-549 breast and in the assay on MDA-MB-231 breast was > 100 µM throughout.
`CC(C)[O-].CC(C)[O-].CN(CCN(C)Cc1cc(F)cc(F)c1[O-])Cc1cc(F)cc(F)c1[O-].[Ti+4]`: the values for the GI50 in the assay on PC-3 prostate, in the assay with BT-549 breast and in the assay with MDA-MB-231 breast were 1.23 µM, 1.95 µM and 1.67 µM, respectively. Further, the TGI with PC-3 prostate turned out to be 5.43 µM; in the assay on BT-549 breast, 5.92 µM; in the assay with MDA-MB-231 breast it was 10.5 µM.
`c1ccc(-c2nc(N3CCCNCC3)c3nc(-c4ccccc4)oc3n2)cc1`: in the assay with MDA-MB-231 breast, the GI50 is 1.72 µM and the TGI amounted to 3.21 µM.
On to `O=C1c2ccccc2-c2c1c1c(NCCCO)nc3ccccc3c1n2Cc1ccccc1`, for which, in the assay on BT-549 breast, the GI50 was 21.1 µM and the TGI stood at 43.7 µM. For the same compound, in the assay on MDA-MB-231 breast, the GI50 is 20.7 µM and the TGI was determined as 42.7 µM.
For the compound `Fc1ccc2nc(-c3cc(-c4ccc5c(c4)OCO5)n[nH]3)[nH]c2c1`, the GI50 with PC-3 prostate was 3.61 µM; with BT-549 breast, 1.48 µM; in the assay with MDA-MB-231 breast, 2.01 µM. Further, the TGI with PC-3 prostate is > 82.3 µM; in the assay with BT-549 breast, > 25.9 µM; in the assay with MDA-MB-231 breast, 6.59 µM.
In the case of `CSc1ccc(N(C)c2nc(C)nc3c2CCC3)cc1`, the GI50 with PC-3 prostate, in the assay on BT-549 breast and with MDA-MB-231 breast was < 0.01 µM each time. Further, the values for the TGI with PC-3 prostate, in the assay on BT-549 breast and in the assay on MDA-MB-231 breast were 51.6 µM, < 0.01 µM and 72.4 µM, respectively.
As for `O=C(Cl)C1=C(c2ccccc2)C1c1ccccc1` (stereo not given), the TGI with MDA-N, in the assay on PC-3 prostate, in the assay with BT-549 breast and with MDA-MB-231 breast was > 100 µM each time.
As for `CCOC(=O)N1CCN(CCCCCOc2ccccc2C2CCCCC2)CC1`, the GI50 in the assay on PC-3 prostate is 2.6 µM; in the assay on BT-549 breast, 3 µM; with MDA-MB-231 breast it was 5.1 µM. The TGI in the assay with PC-3 prostate came to 13 µM; in the assay on BT-549 breast, 11.3 µM; in the assay on MDA-MB-231 breast, 21.5 µM.
For `CN1c2ccccc2SC2C(c3ccccc3)=NOC21` (stereo not given), the TGI in the assay with MDA-N was 52.8 µM; with PC-3 prostate, 71 µM; with BT-549 breast it was 68.4 µM; in the assay with MDA-MB-231 breast, > 100 µM.
For `CCOc1ccc(Nc2c3ccccc3nc3ccccc23)cc1`, the GI50 in the assay with PC-3 prostate was 0.392 µM and 0.748 µM; in the assay with BT-549 breast, 0.478 µM and 0.556 µM; in the assay on MDA-MB-231 breast it was 1.91 µM and 0.959 µM. In addition, the TGI in the assay on PC-3 prostate is 7.29 µM and 5.61 µM; with BT-549 breast, 9.51 µM and 10.2 µM; with MDA-MB-231 breast it was 9.67 µM and 14.5 µM.
In the case of `Nc1cc(-c2ccc(Cl)cc2)nn1-c1nnc(/C=C/c2ccco2)c(=O)[nH]1`, the values for the GI50 with PC-3 prostate, in the assay on BT-549 breast and in the assay on MDA-MB-231 breast were 8.95 µM, 5.62 µM and 11.2 µM, respectively. In addition, the TGI with PC-3 prostate is > 75 µM; in the assay with BT-549 breast it was 55.5 µM; in the assay with MDA-MB-231 breast, > 100 µM.
Take `CC(=O)[CH-]C(=O)c1ccccc1.CC(=O)[CH-]C(=O)c1ccccc1.CC1(C)OCC(C2OC3OC(C)(C)OC3C2[O-])O1.CC[O-].[Ti+4]` (stereo not given): in the assay with KM20L2 colon, the GI50 is 21 µM and the TGI is 53.5 µM. In the assay with M19-MEL melanoma, the GI50 is 10.5 µM and the TGI worked out at 24.5 µM.
As to `Clc1ccc2c(c1)N(c1ncnc3ccc(-c4cnc5[nH]ncc5c4)cc13)CC2`, the GI50 in the assay on PC-3 prostate is 0.458 µM; in the assay on BT-549 breast it was 0.676 µM; in the assay on MDA-MB-231 breast, 0.719 µM. The TGI in the assay on PC-3 prostate, with BT-549 breast and in the assay with MDA-MB-231 breast was > 100 µM in each case.
In the case of `O=C(O)c1ccccc1C(=O)c1ccc2c(c1)Cc1ccccc1-2`, the TGI in the assay with MDA-N, in the assay on PC-3 prostate, with BT-549 breast and in the assay with MDA-MB-231 breast was > 100 µM each time.
As for `CCCCCCCCCCCCCC[n+]1cccc(C(N)=O)c1`, in the assay on PC-3 prostate, the GI50 is 0.598 µM and the TGI worked out at 2.94 µM. In the assay with MDA-MB-231 breast, the GI50 was 1.45 µM and the TGI was 4.54 µM.
On to `N#CC(C#N)=c1c2nsnc2c(=C(C#N)C#N)c2nsnc12`, for which the TGI in the assay on KM20L2 colon amounted to 3.26 µM; with LXFL 529 NSCLC, 2.99 µM; in the assay on DMS 273 small cell lung it was 3.24 µM.
As to `COc1cc2nc(-c3ccc(C(F)(F)F)cc3)cc(OCCCN3CCCC3)c2cc1OC`, the GI50 is 1.14 µM in the assay with PC-3 prostate, 0.917 µM in the assay on BT-549 breast and 0.532 µM in the assay on MDA-MB-231 breast. Moreover, the TGI in the assay with PC-3 prostate stood at 9.79 µM; in the assay on BT-549 breast, 4.95 µM; with MDA-MB-231 breast, 8.23 µM.
`Cc1ccc(NC(=O)/C(Cc2nc3ccc([N+](=O)[O-])cc3[nH]c2=O)=N\NC(=O)C[n+]2ccccc2)c(C)c1`: the TGI in the assay with MDA-N was > 100 µM; in the assay on PC-3 prostate it was > 100 µM; in the assay with BT-549 breast it was > 100 µM; with MDA-MB-231 breast, 86.4 µM.
Turning to `COC(=O)c1ccc2c(c1)C(=O)c1c-2n(CCCN=[N+]=[N-])c(=O)c2cc([N+](=O)[O-])ccc12`, the GI50 in the assay on PC-3 prostate is > 100 µM; in the assay on BT-549 breast, 24.1 µM; in the assay with MDA-MB-231 breast it was 58 µM. In addition, the TGI in the assay with PC-3 prostate was > 100 µM; in the assay on BT-549 breast it was 69.6 µM; in the assay on MDA-MB-231 breast it was > 100 µM.
Regarding `O=C1c2cccc3cccc(c23)C(=O)N1O`, the TGI with MDA-N, in the assay on PC-3 prostate, in the assay with BT-549 breast and with MDA-MB-231 breast was > 100 µM throughout.

For the origin of these results see PubChem BioAssay (NCI).
